Where two headings read alike, the source gives them in different places.
Legend:
[1] = test system: CsgA gene expression (csgBAC promoter-GFP reporter) in E. coli UTI89; experiment: In vitro live cell fluorescent reporter assay of CsgA transcription (Reporter Assay); type: cell-based; conditions: Escherichia coli
Protocol: In vitro live cell fluorescent reporter assay to determine effects of compounds on CsgA transcription. To assess the impact of compounds on CsgA gene expression, a live cell assay was performed using an engineered strain of E. coli UTI89 with a fluorescent CsgA gene expression reporter driven by the csgBAC promoter. In the reporter strain, a gene encoding Green Fluorescent Protein (GFP) was placed immediately downstream of the full intergenic region between csgDEF and csgBAC, containing the csgBAC promoter and other transcriptional regulatory elements, and inserted in single copy into the E. coli UTI89 chromosome, as described in Cegelski et. al., “Small-molecule inhibitors target Escherichia coli amyloid biogenesis and biofilm formation,” Nat. Chem. Bio., 25 Oct. 2009. With this construct, GFP expression in the reporter strain was under the same regulation as CsgA expression. The reporter strain was struck out on a YESCA agar plate (1 g/L yeast extract, 10 g/L casamino acids, 20 g/L Bacto Agar) and grown at about 27° C. for 2 days, or until single colonies were sufficiently large to pick. A single colony of the reporter strain was used to inoculate 5 mL of YESCA broth (1 g/L yeast extract, 10 g/L casamino acids), which was grown overnight at about 27° C. The inoculum was diluted 1:10 in YESCA broth and the optical density at 600 nm (OD600) was measured on a SpectraMax M2 or M5e (Molecular Devices, San Jose, Calif.) spectrophotometer in cuvettes. The culture was then further diluted to achieve a final OD600 of 0.003, which was confirmed by measurement of the OD600. Compounds were diluted in dimethyl sulfoxide (DMSO) and plated on black clear-bottomed tissue culture-treated 96-well plates with 1.5 μL/well for final test concentrations from 0.14-100 μM. All assay wells, including vehicle controls and positive controls for inhibition, included 1% DMSO final. Vehicle control wells consisted of DMSO and the reporter strain to assess the expression of the reporter strain in the assay in the absence of any compound. […] 148.5 μL culture at OD600 0.003 in YESCA broth was added to all wells for 150 μL final volume. Plates were incubated at 27° C. for 20 hours, then GFP fluorescence signal for each well was read on a Spectramax M2 or M5e plate reader with excitation at 485 nm, emission at 525 nm, and a cutoff at 515 nm. OD600 for each well was also measured on the Spectramax M2 or M5e plate reader. […] Background fluorescence was subtracted from all wells, then fluorescence signal for each well was normalized to the mean of the vehicle control wells. Normalized dose response curves were plotted for each compound, and compound inhibition of CsgA transcription was determined by assessing the curve-fit IC50, bottom, top, span (top-bottom), and Hill slope using GraphPad Prism software version 8.1.1 (GraphPad Software, San Diego, Calif.). An additional metric used to evaluate compounds was the concentration at which the curve reached 50% of the expression level of the vehicle control. This was written as a custom analysis in GraphPad Prism according to the formula X[50], or the X value at which Y=50, ie, the compound concentration at which fluorescence of the reporter strain was calculated to reach 50% of the vehicle control fluorescence. Separately from the fluorescence data, OD600 values were normalized to the mean of the vehicle control wells, and dose response curves were plotted for each compound. OD600 reduction of greater than 10% indicated compounds had some toxicity or negative impact on bacterial growth. […]

[2] = biological target: T1, E. coli CsgA (Escherichia coli, UniProt P28307); experiment: In vitro ThioflavinT assay of CsgA aggregation (CsgA ThT Assay); type: biochemical; conditions: for remaining activity at 25 µM: compound 25 μM; for remaining activity at 100 µM: compound 100 μM
T1 construct: made in house; host or cells: E. coli NEB 3016 slyD::kan, pET11d
T1 sequence (P28307 23-151): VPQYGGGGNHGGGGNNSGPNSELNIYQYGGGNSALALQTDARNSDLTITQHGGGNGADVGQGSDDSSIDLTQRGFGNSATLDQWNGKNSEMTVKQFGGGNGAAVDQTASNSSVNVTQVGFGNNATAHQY
Protocol: In vitro ThioflavinT assay to determine effects of compounds on CsgA aggregation. To assess the effects of compounds on aggregation of E. coli CsgA, a cell-free assay was performed using purified CsgA and Thioflavin T. In the assay, histidine-tagged CsgA was over-expressed in E. coli NEB 3016 slyD::kan cells harboring a pET11d vector containing a C-terminal 6× His tag. Following growth in rich media, CsgA production is induced at an OD600 of approximately 1.0 by addition of 0.5 mM IPTG (isopropyl beta-D-1-thiogalactopyranoside) followed by incubation at 37° C. for 1-4 hours with shaking at 200-250 rpm. Bacteria were resuspended in 8 M guanidine hydrochloride in 50 mM potassium phosphate buffer, pH 7.3 and lysed by sonication on ice using three 20 second intervals. The resulting lysate was incubated on a platform rocker for 1 hour at room temperature. After centrifugation at 10,000×g for 20 minutes, the supernatant was further sonicated on ice for three 20 second intervals and then incubated with nickel-nitrilotriacetic acid resin (Sigma) at room temperature for 1 hour in a 50 mL conical tube on a platform rocker. The resin was washed and pelleted 5 times with 45 mL 8 M guanidine in 50 mM potassium phosphate buffer pH 7.3. The resin was further washed and pelleted two times with 8 M guanidine hydrochloride in 50 mM potassium phosphate buffer pH 7.3 containing 12.5 mM imidazole. Purified CsgA protein was eluted two times with 5 mL of 6-8 M guanidine hydrochloride in 50 mM potassium phosphate buffer, pH 7.3 containing 250 mM imidazole. The eluted protein was aliquoted with 150 μL per aliquot, snap frozen in liquid nitrogen, and stored at −80 C. In order to obtain monomeric CsgA, the purified CsgA protein was thawed and passed through two pre-chilled desalting columns (Zeba) to remove imidazole and guanidine. The buffer exchanged protein was loaded onto a 30-kDa centrifugal filter unit (Amicon) and spun for 30 minutes at 7500×g to remove dimers and other oligomers. Protein concentration was assessed by the NanoDrop technique (Thermo Scientific), as is familiar to one skilled in the art. The CsgA aggregation assay was conducted in 96-well black non-binding surface or white untreated microplates with 20-40 μM ThioflavinT, 50 mM potassium phosphate buffer pH 7.3, 1% DMSO, CsgA at 2-20 μM, and compounds at 3.125-200 uM. The vehicle control wells contain all components of the assay except test compounds and represent the level of CsgA aggregation in the absence of any inhibitor or accelerator. Plates were incubated at room temperature in a Tecan Nano F200 plate reader with excitation at 438 nm using a 439 nm filter with a bandwidth of 8 nm, and emission at 495 nm with a 490 nm filter with a bandwidth of 10 nm, or in a SpectraMax M5, SpectraMax M2 or SpectraMax® i3X (Molecular Devices, San Jose, Calif.) spectrophotometer with excitation at 438 nm and emission at 495 nm. During the assay, plates were shaken initially for 5 seconds and subsequently for 3 seconds prior to fluorescent readings. Readings were performed every 15 minutes for up to 1005 minutes. The effect of compounds on CsgA aggregation in the assay was determined with data from 0-17 hours. Fluorescence values for each compound with CsgA were first adjusted by subtracting the average fluorescence of the compound in the absence of CsgA or in the presence of CsgA and compound at time 0 or 15 minutes. The data were analyzed in several ways:
1. The adjusted ThT fluorescence values were normalized by dividing them by the average fluorescence in the vehicle control wells containing CsgA. The median normalized fluorescence from 6-6.5 hours or 8-9 hours with the compound was expressed as a percentage of the median fluorescence observed in vehicle controls over the same time period. Percent inhibition of CsgA aggregation by a compound was determined by subtracting the percent average fluorescence with the compound relative to the vehicle controls from 100%. […]

[3] = read-out: Reporter Assay Abs IC50 (activity range), median Abs IC50 in the CsgA reporter assay, class symbol
[4] = read-out: Reporter Assay Abs IC50 (μM), median Abs IC50 in the CsgA reporter assay, N/A = maximum expression reduction is <50% of control
[5] = read-out: CsgA ThT Assay (10 μM CsgA) % Control AUC at 1005 minutes, 25 μM (activity range), CsgA 10 μM, black plates, 1005 minutes, class symbol
[6] = read-out: CsgA ThT Assay (10 μM CsgA) % Control AUC at 1005 minutes, 25 μM, mean AUC as % of DMSO control, CsgA 10 μM, black plates, 1005 minutes
[7] = read-out: CsgA ThT Assay (10 μM CsgA) % Control AUC at 1005 minutes, 100 μM (activity range), CsgA 10 μM, black plates, 1005 minutes, class symbol
[8] = read-out: CsgA ThT Assay (10 μM CsgA) % Control AUC at 1005 minutes, 100 μM, mean AUC as % of DMSO control, CsgA 10 μM, black plates, 1005 minutes
[9] = read-out: Reporter Assay Abs IC50, activity range, class symbol
[10] = read-out: CsgA ThT Assay (2 μM CsgA) % Control Bmax 25 μM, activity range, class symbol, CsgA 2 μM, white plates
[11] = read-out: CsgA ThT Assay (2 μM CsgA) % Control Bmax 25 μM, mean Bmax as percentage of DMSO control, CsgA 2 μM, white plates
[12] = read-out: CsgA ThT Assay (2 μM CsgA) % Control Bmax 100 μM, activity range, class symbol, CsgA 2 μM, white plates
[13] = read-out: CsgA ThT Assay (2 μM CsgA) % Control Bmax 100 μM, mean Bmax as percentage of DMSO control, CsgA 2 μM, white plates

| SMILES | IC50 [1, 3] [µM] | IC50 [1, 4] [µM] | remaining activity at 25 µM [2, 5] [%] | remaining activity at 25 µM [2, 6] [%] | remaining activity at 100 µM [2, 7] [%] | remaining activity at 100 µM [2, 8] [%] | IC50 [1, 9] [µM] | remaining activity at 25 µM [2, 10] [%] | remaining activity at 25 µM [2, 11] [%] | remaining activity at 100 µM [2, 12] [%] | remaining activity at 100 µM [2, 13] [%] |
| --- | --- | --- | --- | --- | --- | --- | --- | --- | --- | --- | --- |
| CCCN1CC(C(=O)O)n2c(c(-c3cccc(C(F)(F)F)c3)c(Cc3cccc4ccccc34)c(N)c2=O)S1(=O)=O (stereo not drawn) [Compound 089, 7-amino-8-(naphthalen-1-ylmethyl)-6-oxo-2-propyl-9-(3-(trifluoromethyl)phenyl)-3,4-dihydro-2H,6H-pyrido[1,2-e][1,2,5]thiadiazine-4-carboxylic acid 1,1-dioxide] | 4.6 to 10 | 8 | 31 to 60 | 31 | 11 to 31 | 23 | – | – | – | – | – |
| O=C(O)[C@H]1CN(Cc2ccccc2)c2c(-c3cccc(C(F)(F)F)c3)c(Cc3cccc4ccccc34)c(Br)c(=O)n21 (single isomer, unassigned) [Compound 190] | – | 1.6 | – | – | – | – | 1.3 to 4.5 | > 60 | 63 | 31 to 60 | 56 |
| O=C(O)C1CN(C2CCCC2)S(=O)(=O)c2c(-c3cccc(C(F)(F)F)c3)c(Cc3cccc4ccccc34)c(NC3CCCC3)c(=O)n21 (stereo not drawn) [Compound 150, 2-cyclopentyl-7-(cyclopentylamino)-8-(naphthalen-1-ylmethyl)-6-oxo-9-(3-(trifluoromethyl)phenyl)-3,4-dihydro-2H,6H-pyrido[1,2-e][1,2,5]thiadiazine-4-carboxylic acid 1,1-dioxide] | – | 4.2 | – | – | – | – | 1.3 to 4.5 | > 60 | 78 | > 60 | 199 |
| O=C(O)C1CN(Cc2ccccc2)c2c(-c3cccc(C(F)(F)F)c3)c(Cc3cncc4ccccc34)c(Cl)c(=O)n21 (stereo not drawn) [Compound 210, 1-benzyl-6-chloro-7-(isoquinolin-4-ylmethyl)-5-oxo-8-(3-(trifluoromethyl)phenyl)-1,2,3,5-tetrahydroimidazo[1,2-a]pyridine-3-carboxylic acid] | – | 2.5 | – | – | – | – | 1.3 to 4.5 | > 60 | 79 | > 60 | 61 |
| CC(C)(C)c1cccc(Cc2c(-c3cccc(C(F)(F)F)c3)c3n(c(=O)c2Cl)C(C(=O)O)CN3Cc2ccccc2)c1 (stereo not drawn) [Compound 215, 1-benzyl-7-(3-(tert-butyl)benzyl)-6-chloro-5-oxo-8-(3-(trifluoromethyl)phenyl)-1,2,3,5-tetrahydroimidazo[1,2-a]pyridine-3-carboxylic acid] | – | 1.3 | – | – | – | – | 1.3 to 4.5 | > 60 | 97 | > 60 | 61 |
| O=C(O)C1CN(Cc2ccccc2)c2c(-c3cccc(C(F)(F)F)c3)c(Cc3ccccc3)c(Cl)c(=O)n21 (stereo not drawn) [Compound 214, 1,7-dibenzyl-6-chloro-5-oxo-8-(3-(trifluoromethyl)phenyl)-1,2,3,5-tetrahydroimidazo[1,2-a]pyridine-3-carboxylic acid] | – | 1.8 | – | – | – | – | 1.3 to 4.5 | > 60 | 90 | > 60 | 84 |
| CN(C)Cc1c(Cc2cccc3ccccc23)c(-c2cccc(C(F)(F)F)c2)c2n(c1=O)C(C(=O)O)CN(C)S2(=O)=O (stereo not drawn) [Compound 108, 7-((dimethylamino)methyl)-2-methyl-8-(naphthalen-1-ylmethyl)-6-oxo-9-(3-(trifluoromethyl)phenyl)-3,4-dihydro-2H,6H-pyrido[1,2-e][1,2,5]thiadiazine-4-carboxylic acid 1,1-dioxide] | < 1.3 | 0.6 | 11 to 31 | 14 | 11 to 31 | 25 | – | – | – | – | – |
